Laboratory results as given in patent publication US12054487B2, “Muscarinic acetylcholine M1 receptor antagonists” (Contineum Therapeutics, Inc., priority 2018, dated 2024).

Key:
Type in all cases: cell-based
M2 = molecular target: T1, M2 (Homo sapiens, UniProt P08172); test: In vitro functional assay of muscarinic acetylcholine receptor activity, M2; details: antagonist activity; M2 method not separately described
T1 sequence (P08172 1-466): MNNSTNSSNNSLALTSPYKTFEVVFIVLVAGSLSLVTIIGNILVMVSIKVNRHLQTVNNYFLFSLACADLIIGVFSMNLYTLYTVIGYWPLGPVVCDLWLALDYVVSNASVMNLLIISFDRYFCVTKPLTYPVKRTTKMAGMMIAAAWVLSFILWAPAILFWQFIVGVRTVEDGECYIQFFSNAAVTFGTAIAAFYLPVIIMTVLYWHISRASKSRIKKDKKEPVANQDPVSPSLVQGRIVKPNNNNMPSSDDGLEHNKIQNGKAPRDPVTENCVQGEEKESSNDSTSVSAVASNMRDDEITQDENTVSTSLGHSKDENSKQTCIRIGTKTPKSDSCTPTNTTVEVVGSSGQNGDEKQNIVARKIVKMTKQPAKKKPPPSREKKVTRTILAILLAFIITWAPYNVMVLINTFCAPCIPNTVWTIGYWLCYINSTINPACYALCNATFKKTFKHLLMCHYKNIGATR
Procedure: [The procedure below names another target; the source lists this target under the same test.] (§1) CHO-K1 cells stably expressing human M1 receptor with Aequorin (Perkin Elmer) were grown in F12 media, 10% FBS with 0.4 mg/mL geneticin and […]. Cells were grown to confluence and frozen down to be assayed at a later date. On the day of the experiment cells were thawed in a 37° C. water bath, resuspended in DMEM/HAM's F12 with HEPES (Invitrogen)+0.1% protease-free BSA (assay buffer), and spun down to remove freezing media. After centrifugation, supernatant was removed and 12 mL of assay buffer was added. Coelenterazine h (Promega) was added to the cells at a final concentration of 5 uM and incubated for 4 hours at room temperature in the dark. Compound master plate-96 deep well (Corning) were formatted in a 8-point DRC in assay buffer with 0.2% DMSO at a starting concentration of 60 uM (2×). After 4 hours of incubation, cells were plated at a concentration of 5×10^5 cells/well in 96 well white-walled, tissue culture-treated, clear-bottom plates (VWR). Compounds were added to the daughter plate, and cells plus compound were incubated at room temperature for 30 minutes in the dark.
(§2) Calcium flux was measured using the FlexStation 3 (Molecular Devices). To measure the antagonist dose-response, the EC80 of Acetylcholine was injected to the daughter plate using the automated compound transfer function of the Flex Station, and the increase in luminescence was measured over time. Antagonist activity was analyzed as a concentration dependent decrease in the EC80 acetylcholine response. Dose response curves were generated using Prism (GraphPad Software). The IC50 of the compounds was calculated from the dose response curve.

M3 = M3 (Homo sapiens, UniProt P20309); test: In vitro functional assay of muscarinic acetylcholine receptor activity, M3; details: antagonist activity; M3 method not separately described
M3, sequence (P20309 whole entry): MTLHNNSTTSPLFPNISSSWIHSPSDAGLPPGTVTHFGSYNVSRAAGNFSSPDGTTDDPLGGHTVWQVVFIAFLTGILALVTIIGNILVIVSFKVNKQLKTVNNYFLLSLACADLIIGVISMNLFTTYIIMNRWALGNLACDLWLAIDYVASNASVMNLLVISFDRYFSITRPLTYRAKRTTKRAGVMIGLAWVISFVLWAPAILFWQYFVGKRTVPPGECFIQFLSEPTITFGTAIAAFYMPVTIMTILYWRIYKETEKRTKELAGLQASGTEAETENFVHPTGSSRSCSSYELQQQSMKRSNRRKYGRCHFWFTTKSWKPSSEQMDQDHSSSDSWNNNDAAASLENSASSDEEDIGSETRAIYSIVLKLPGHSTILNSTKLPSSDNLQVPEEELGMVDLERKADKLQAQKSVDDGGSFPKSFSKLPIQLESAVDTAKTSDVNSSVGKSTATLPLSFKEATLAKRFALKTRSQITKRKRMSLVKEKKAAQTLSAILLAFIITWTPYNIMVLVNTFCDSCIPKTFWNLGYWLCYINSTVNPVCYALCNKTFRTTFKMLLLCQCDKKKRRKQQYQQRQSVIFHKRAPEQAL
Procedure: [The procedure below names another target; the source lists this target under the same test.] as §1, §2

human M1 receptor = molecular target: T2, human M1 receptor (Homo sapiens, UniProt P11229); test: In vitro functional assay of muscarinic acetylcholine receptor activity (aequorin calcium flux, antagonist mode vs EC80 acetylcholine), M1; details: CHO-K1 cells stably expressing human M1 receptor with Aequorin; decrease in EC80 acetylcholine response
T2 construct: host or cells: CHO-K1
T2 sequence (P11229 1-460): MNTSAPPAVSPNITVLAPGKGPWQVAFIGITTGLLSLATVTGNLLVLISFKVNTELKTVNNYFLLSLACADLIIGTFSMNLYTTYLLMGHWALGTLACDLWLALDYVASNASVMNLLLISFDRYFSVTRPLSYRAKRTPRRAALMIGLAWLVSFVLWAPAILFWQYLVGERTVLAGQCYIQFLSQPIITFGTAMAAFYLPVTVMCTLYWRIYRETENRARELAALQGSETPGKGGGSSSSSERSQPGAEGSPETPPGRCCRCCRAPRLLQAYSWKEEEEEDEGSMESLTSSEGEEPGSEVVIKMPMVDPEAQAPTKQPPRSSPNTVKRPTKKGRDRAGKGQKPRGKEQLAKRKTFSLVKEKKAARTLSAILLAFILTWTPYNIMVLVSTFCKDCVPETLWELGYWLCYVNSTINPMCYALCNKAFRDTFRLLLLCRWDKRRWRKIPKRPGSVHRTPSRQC
Procedure: as §1, §2

SMILES | IC50 (M2) | IC50 (M3) | IC50 (human M1 receptor)
N#Cc1ccc(N2CCN3C(=O)[C@@H](CCCc4cccnn4)C[C@H]3C2)nc1 [Example 56, 6-((7S,8aS)-6-oxo-7-(3-(pyridazin-3-yl)propyl)hexahydropyrrolo[1,2-a]pyrazin-2(1H)-yl)nicotinonitrile] | 100 to 1000 nM | 100 to 1000 nM | < 100 nM
O=C1[C@@H](CCCc2cccc3ncnn23)C[C@H]2CN(c3ncc(F)cn3)CCN12 [Example 35, (7S,8aS)-7-(3-([1,2,4]triazolo[1,5-a]pyridin-5-yl)propyl)-2-(5-fluoropyrimidin-2-yl)hexahydropyrrolo[1,2-a]pyrazin-6(2H)-one] | > 10000 nM | > 10000 nM | < 100 nM
N#Cc1ccc(N2CCN3C(=O)[C@@H](CCCc4cccc5nnnn45)C[C@H]3C2)nc1 [Example 17, 6-((7S,8aS)-6-oxo-7-(3-(tetrazolo[1,5-a]pyridin-5-yl)propyl)hexahydropyrrolo[1,2-a]pyrazin-2(1H)-yl)nicotinonitrile] | 1000 to 10000 nM | 1000 to 10000 nM | < 100 nM
Cc1ccc(N2CCN3C(=O)[C@@H](CCCc4cccc5ncnn45)C[C@H]3C2)nc1 [Example 40, (7S,8aS)-7-(3-([1,2,4]triazolo[1,5-a]pyridin-5-yl)propyl)-2-(5-methylpyridin-2-yl)hexahydropyrrolo[1,2-a]pyrazin-6(2H)-one] | > 10000 nM | > 10000 nM | < 100 nM
O=C1C(CCCc2c(F)ccc3nccn23)C[C@H]2CN(c3ccc(F)cn3)CCN12 (stereo partly drawn) [Example 89, (8aS)-7-(3-(6-fluoroimidazo[1,2-a]pyridin-5-yl)propyl)-2-(5-fluoropyridin-2-yl)hexahydropyrrolo[1,2-a]pyrazin-6(2H)-one] | 1000 to 10000 nM | 1000 to 10000 nM | < 100 nM
O=C1[C@H](CCCc2cccc3ncsc23)C[C@H]2CN(c3ccncc3F)CCN12 [Example 1, (7R,8aS)-7-(3-(benzo[d]thiazol-7-yl)propyl)-2-(3-fluoropyridin-4-yl)hexahydropyrrolo[1,2-a]pyrazin-6(2H)-one] | > 10000 nM | > 10000 nM | > 10000 nM
O=C1[C@@H](CCCc2cccc3ncnn23)C[C@H]2CN(c3ccnc(C(F)(F)F)c3)CCN12 [Example 33, (7S,8aS)-7-(3-([1,2,4]triazolo[1,5-a]pyridin-5-yl)propyl)-2-(2-(trifluoromethyl)pyridin-4-yl)hexahydropyrrolo[1,2-a]pyrazin-6(2H)-one] | 1000 to 10000 nM | 1000 to 10000 nM | 100 to 1000 nM
Cc1nc2cccc(CCC[C@H]3C[C@H]4CN(c5ccc(C#N)cn5)CCN4C3=O)c2o1 [Example 21, 6-((7S,8aS)-7-(3-(2-methylbenzo[d]oxazol-7-yl)propyl)-6-oxohexahydropyrrolo[1,2-a]pyrazin-2(1H)-yl)nicotinonitrile] | 1000 to 10000 nM | 1000 to 10000 nM | < 100 nM
N#Cc1cc(N2CCN3C(=O)[C@@H](CCCc4cccc5ncsc45)C[C@H]3C2)ccn1 [Example 11, 4-((7S,8aS)-7-(3-(benzo[d]thiazol-7-yl)propyl)-6-oxohexahydropyrrolo[1,2-a]pyrazin-2(1H)-yl)picolinonitrile] | 100 to 1000 nM | 100 to 1000 nM | < 100 nM
N#Cc1ccc(N2CCN3C(=O)[C@@H](CCCc4cccc5cncn45)C[C@H]3C2)nc1 [Example 14, 6-((7S,8aS)-7-(3-(imidazo[1,5-a]pyridin-5-yl)propyl)-6-oxohexahydropyrrolo[1,2-a]pyrazin-2(1H)-yl)nicotinonitrile] | 1000 to 10000 nM | 1000 to 10000 nM | 100 to 1000 nM
N#Cc1ccc(N2CCN3C(=O)[C@@H](CCCc4cccc5ncoc45)C[C@H]3C2)nc1 [Example 22, 6-((7S,8aS)-7-(3-(benzo[d]oxazol-7-yl)propyl)-6-oxohexahydropyrrolo[1,2-a]pyrazin-2(1H)-yl)nicotinonitrile] | 100 to 1000 nM | 1000 to 10000 nM | < 100 nM
O=C1[C@@H](CCCc2cccc3nccnc23)C[C@H]2CN(c3ccc(F)cn3)CCN12 [Example 93, (7S,8aS)-2-(5-fluoropyridin-2-yl)-7-(3-(quinoxalin-5-yl)propyl)hexahydropyrrolo[1,2-a]pyrazin-6(2H)-one] | > 10000 nM | 1000 to 10000 nM | < 100 nM
O=C1[C@@H](CCCc2cccn3ncnc23)C[C@H]2CN(c3ccc(F)cn3)CCN12 [Example 62, (7S,8aS)-2-(5-fluoropyridin-2-yl)-7-(3-{[1,2,4]triazolo[1,5-a]pyridin-8-yl}propyl)-octahydropyrrolo[1,2-a]pyrazin-6-one] | 1000 to 10000 nM | 1000 to 10000 nM | < 100 nM
O=C1[C@@H](CCCc2cccn3ncnc23)C[C@H]2CN(c3ncc(Cl)cn3)CCN12 [Example 64, (7S,8aS)-7-(3-([1,2,4]triazolo[1,5-a]pyridin-8-yl)propyl)-2-(5-chloropyrimidin-2-yl)hexahydropyrrolo[1,2-a]pyrazin-6(2H)-one] | 100 to 1000 nM | 1000 to 10000 nM | < 100 nM
O=C1[C@@H](CCCc2cccn3ncnc23)C[C@H]2CN(c3ncc(F)cn3)CCN12 [Example 63, (7S,8aS)-7-(3-([1,2,4]triazolo[1,5-a]pyridin-8-yl)propyl)-2-(5-fluoropyrimidin-2-yl)hexahydropyrrolo[1,2-a]pyrazin-6(2H)-one] | > 10000 nM | 1000 to 10000 nM | < 100 nM
N#Cc1ccc(N2CCN3C(=O)[C@@H](CCCc4cccc5c4NCCN5)C[C@H]3C2)nc1 [Example 61, 6-((7S,8aS)-6-oxo-7-(3-(1,2,3,4-tetrahydroquinoxalin-5-yl)propyl)hexahydropyrrolo[1,2-a]pyrazin-2(1H)-yl)nicotinonitrile] | 1000 to 10000 nM | > 10000 nM | 100 to 1000 nM
O=C1[C@@H](CCCc2cccc3ncnn23)C[C@H]2CN(c3ccc(CO)cn3)CCN12 [Example 53, (7S,8aS)-7-(3-([1,2,4]triazolo[1,5-a]pyridin-5-yl)propyl)-2-(5-(hydroxymethyl)pyridin-2-yl)hexahydropyrrolo[1,2-a]pyrazin-6(2H)-one] | 1000 to 10000 nM | > 10000 nM | < 100 nM
N#Cc1ccc(N2CCN3C(=O)[C@@H](CNCc4cccc5ncnn45)C[C@H]3C2)nc1 [Example 5, 6-((7R,8aS)-7-((([1,2,4]triazolo[1,5-a]pyridin-5-ylmethyl)amino)methyl)-6-oxohexahydropyrrolo[1,2-a]pyrazin-2(1H)-yl)nicotinonitrile] | 1000 to 10000 nM | > 10000 nM | 100 to 1000 nM
N#Cc1cc(N2CCN3C(=O)[C@@H](CCCc4cccc5ncnn45)C[C@H]3C2)ccc1F [Example 52, 5-((7S,8aS)-7-(3-([1,2,4]triazolo[1,5-a]pyridin-5-yl)propyl)-6-oxohexahydropyrrolo [1,2-a]pyrazin-2(1H)-yl)-2-fluorobenzonitrile] | 100 to 1000 nM | 1000 to 10000 nM | 100 to 1000 nM
O=C1[C@@H](CCCc2cccc3ncsc23)C[C@H]2CN(c3ccnc(Cl)c3)CCN12 [Example 12] | 1000 to 10000 nM | 1000 to 10000 nM | 100 to 1000 nM
Nc1cc(N2CCN3C(=O)[C@@H](CCCc4cccc5ncsc45)C[C@H]3C2)ccn1 [Example 30, (7S,8aS)-2-(2-aminopyridin-4-yl)-7-(3-(benzo[d]thiazol-7-yl)propyl)hexahydropyrrolo[1,2-a]pyrazin-6(2H)-one] | 1000 to 10000 nM | 1000 to 10000 nM | < 100 nM
